In US20260258030A1, “USE AND TREATMENT METHOD OF AZETIDINE DERIVATIVE” (SICHUAN KELUN-BIOTECH BIOPHARMACEUTICAL CO., LTD., priority 2022, published 2026):

Assays:
[1] = system: STAT3 phosphorylation induced by cytokine IL-6 stimulation in CD4+ T cells; experiment: Inhibition of STAT3 phosphorylation induced by IL-6 in CD4+ T cells in human whole blood (flow cytometry); assay type: cell-based
Description: (§1) The inhibitory effect of Compound 8 on STAT5 phosphorylation induced by cytokine IL-2 stimulation in CD4+ T cells in human whole blood, as well as on STAT3 phosphorylation induced by cytokine IL-6 stimulation in CD4+ T cells in human whole blood, was detected using flow cytometry.

[2] = system: STAT5 phosphorylation induced by cytokine IL-2 stimulation in CD4+ T cells; experiment: Inhibition of STAT5 phosphorylation induced by IL-2 in CD4+ T cells in human whole blood (flow cytometry); assay type: cell-based
Description: as §1

[3] = molecular target: p70S6K (p70 ribosomal protein S6 kinase) (Homo sapiens, UniProt P23443); experiment: In vitro kinase inhibition, enzymatic assay, p70S6K; assay type: biochemical; details: at a concentration of 200 nM; read-out: inhibition rate on p70S6K
Sequence of p70S6K (p70 ribosomal protein S6 kinase) (P23443 whole entry): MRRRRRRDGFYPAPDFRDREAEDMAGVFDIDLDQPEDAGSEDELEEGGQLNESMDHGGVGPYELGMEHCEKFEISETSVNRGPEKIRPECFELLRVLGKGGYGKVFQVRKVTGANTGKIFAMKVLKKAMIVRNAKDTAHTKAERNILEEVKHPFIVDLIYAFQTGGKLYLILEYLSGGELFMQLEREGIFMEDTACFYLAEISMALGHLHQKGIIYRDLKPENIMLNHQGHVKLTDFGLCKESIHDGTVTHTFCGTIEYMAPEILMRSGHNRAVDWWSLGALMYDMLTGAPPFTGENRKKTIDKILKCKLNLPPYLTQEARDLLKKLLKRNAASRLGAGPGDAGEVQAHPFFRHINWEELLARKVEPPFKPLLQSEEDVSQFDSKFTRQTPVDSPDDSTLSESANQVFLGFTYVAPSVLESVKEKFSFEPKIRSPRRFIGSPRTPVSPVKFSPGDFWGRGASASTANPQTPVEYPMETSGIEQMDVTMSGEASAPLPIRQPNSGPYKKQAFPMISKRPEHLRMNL
Description: (§2) An in vitro enzymatic assay system was used to test the inhibitory effect of Compound 8 on certain kinase targets.

[4] = molecular target: PKA (protein kinase A) (Homo sapiens, UniProt P17612); experiment: In vitro kinase inhibition, enzymatic assay, PKA; assay type: biochemical; details: at a concentration of 200 nM; read-out: inhibition rate on PKA
Description: as §2

IC50 [1]: 1510 ± 60 nM | IC50 [2]: 460 ± 30 nM | inhibition at 0.2 µM [3]: 67% | inhibition at 0.2 µM [4]: 75%
SMILES: CCS(=O)(=O)N1CC(CC#N)(n2cc(-c3ccnc4[nH]ccc34)cn2)C1 [Compound 8]
